Reference: the NIST ThermoML archive (doi:10.1021/acs.jced.6b00536)
Several values for one entry are separate records, joined by “and”; a condition that tells them apart may be missing. Equal values may be shown once.

Details: Gas, Frequency=0.05 MHz, Single path-length method

FC(F)(F)C(F)(F)F [hexafluoroethane]
Details	speed of sound
250.8 K, 68.9 kPa	127.66 m/s
250.8 K, 77.3 kPa	127.49 m/s
250.8 K, 95 kPa	127.13 m/s
250.8 K, 108.8 kPa	126.85 m/s
250.8 K, 128.5 kPa	126.44 m/s
250.8 K, 149.2 kPa	126.04 m/s
250.8 K, 169.4 kPa	125.61 m/s
250.8 K, 177.2 kPa	125.45 m/s
250.8 K, 195.4 kPa	125.08 m/s
250.8 K, 211.5 kPa	124.74 m/s
250.8 K, 225.5 kPa	124.44 m/s
256.2 K, 70.4 kPa	128.95 m/s
256.2 K, 78.9 kPa	128.78 m/s
256.2 K, 97 kPa	128.43 m/s
256.2 K, 111.1 kPa	128.17 m/s
256.2 K, 131.3 kPa	127.77 m/s
256.2 K, 152.5 kPa	127.38 m/s
256.2 K, 173.1 kPa	126.97 m/s
256.2 K, 181.1 kPa	126.82 m/s
256.2 K, 199.7 kPa	126.45 m/s
256.2 K, 216.2 kPa	126.14 m/s
256.2 K, 230.6 kPa	125.83 m/s
261.5 K, 71.8 kPa	130.24 m/s
261.5 K, 80.5 kPa	130.09 m/s
261.5 K, 99 kPa	129.73 m/s
261.5 K, 113.4 kPa	129.49 m/s
261.5 K, 134.1 kPa	129.1 m/s
261.5 K, 155.7 kPa	128.71 m/s
261.5 K, 176.8 kPa	128.32 m/s
261.5 K, 185 kPa	128.19 m/s
261.5 K, 204 kPa	127.83 m/s
261.5 K, 221 kPa	127.51 m/s
261.5 K, 235.7 kPa	127.24 m/s
266.8 K, 73.3 kPa	131.5 m/s
266.8 K, 82.1 kPa	131.33 m/s
266.8 K, 101.1 kPa	131.02 m/s
266.8 K, 115.7 kPa	130.77 m/s
266.8 K, 136.8 kPa	130.41 m/s
266.8 K, 158.9 kPa	130.04 m/s
266.8 K, 180.5 kPa	129.65 m/s
266.8 K, 188.9 kPa	129.52 m/s
266.8 K, 208.3 kPa	129.18 m/s
266.8 K, 225.6 kPa	128.87 m/s
266.8 K, 240.8 kPa	128.62 m/s
272.1 K, 74.7 kPa	132.77 m/s
272.1 K, 83.7 kPa	132.62 m/s
272.1 K, 103.1 kPa	132.3 m/s
272.1 K, 118 kPa	132.05 m/s
272.1 K, 139.6 kPa	131.72 m/s
272.1 K, 162.1 kPa	131.35 m/s
272.1 K, 184.3 kPa	131.01 m/s
272.1 K, 192.8 kPa	130.85 m/s
272.1 K, 212.6 kPa	130.53 m/s
272.1 K, 230.5 kPa	130.23 m/s
272.1 K, 246.8 kPa	129.96 m/s
277.4 K, 76.2 kPa	134.03 m/s
277.4 K, 85.4 kPa	133.89 m/s
277.4 K, 105.1 kPa	133.57 m/s
277.4 K, 120.4 kPa	133.33 m/s
277.4 K, 142.3 kPa	132.99 m/s
277.4 K, 165.4 kPa	132.66 m/s
277.4 K, 188 kPa	132.3 m/s
277.4 K, 196.7 kPa	132.17 m/s
277.4 K, 216.9 kPa	131.84 m/s
277.4 K, 235.2 kPa	131.58 m/s
277.4 K, 251.8 kPa	131.3 m/s
282.7 K, 77.6 kPa	135.27 m/s
282.7 K, 87 kPa	135.13 m/s
282.7 K, 107.1 kPa	134.83 m/s
282.7 K, 122.7 kPa	134.61 m/s
282.7 K, 145.1 kPa	134.28 m/s
282.7 K, 168.6 kPa	133.93 m/s
282.7 K, 191.6 kPa	133.6 m/s
282.7 K, 200.5 kPa	133.47 m/s
282.7 K, 221.3 kPa	133.16 m/s
282.7 K, 239.9 kPa	132.89 m/s
282.7 K, 256.9 kPa	132.64 m/s
287.9 K, 79.1 kPa	136.49 m/s
287.9 K, 88.6 kPa	136.37 m/s
287.9 K, 109.1 kPa	136.08 m/s
287.9 K, 125 kPa	135.85 m/s
287.9 K, 147.9 kPa	135.54 m/s
287.9 K, 171.8 kPa	135.21 m/s
287.9 K, 195.4 kPa	134.9 m/s
287.9 K, 204.4 kPa	134.76 m/s
287.9 K, 225.6 kPa	134.47 m/s
287.9 K, 244.5 kPa	134.2 m/s
287.9 K, 262 kPa	133.96 m/s
293.2 K, 80.5 kPa	137.71 m/s
293.2 K, 85.4 kPa	137.65 m/s
293.2 K, 90.3 kPa	137.61 m/s
293.2 K, 111.1 kPa	137.3 m/s and 137.31 m/s
293.2 K, 127.3 kPa	137.08 m/s and 137.09 m/s
293.2 K, 150.6 kPa	136.79 m/s and 136.8 m/s
293.2 K, 175 kPa	136.48 m/s
293.2 K, 175.1 kPa	136.49 m/s
293.2 K, 199 kPa	136.16 m/s
293.2 K, 203.7 kPa	136.09 m/s
293.2 K, 208.3 kPa	136.06 m/s
293.2 K, 229.9 kPa	135.75 m/s and 135.74 m/s
293.2 K, 249.1 kPa	135.49 m/s
293.2 K, 249.2 kPa	135.5 m/s
293.2 K, 265.6 kPa	135.26 m/s
293.2 K, 267 kPa	135.26 m/s
298.5 K, 82 kPa	138.94 m/s
298.5 K, 91.9 kPa	138.8 m/s
298.5 K, 113.1 kPa	138.55 m/s
298.5 K, 129.7 kPa	138.33 m/s
298.5 K, 153.4 kPa	138.03 m/s
298.5 K, 178.3 kPa	137.71 m/s
298.5 K, 202.8 kPa	137.42 m/s
298.5 K, 212.2 kPa	137.32 m/s
298.5 K, 234.2 kPa	137.02 m/s
298.5 K, 253.9 kPa	136.77 m/s
298.5 K, 272 kPa	136.54 m/s
303.7 K, 83.4 kPa	140.14 m/s
303.7 K, 93.5 kPa	140.03 m/s
303.7 K, 115.2 kPa	139.76 m/s
303.7 K, 132 kPa	139.56 m/s
303.7 K, 156.2 kPa	139.26 m/s
303.7 K, 181.5 kPa	138.98 m/s
303.7 K, 206.4 kPa	138.67 m/s
303.7 K, 216.1 kPa	138.57 m/s
303.7 K, 238.5 kPa	138.3 m/s
303.7 K, 258.6 kPa	138.06 m/s
303.7 K, 277.2 kPa	137.85 m/s
308.9 K, 84.9 kPa	141.33 m/s
308.9 K, 95.1 kPa	141.19 m/s
308.9 K, 117.2 kPa	140.94 m/s
308.9 K, 134.2 kPa	140.73 m/s
308.9 K, 158.9 kPa	140.47 m/s
308.9 K, 184.7 kPa	140.18 m/s
308.9 K, 210.1 kPa	139.9 m/s
308.9 K, 219.9 kPa	139.79 m/s
308.9 K, 242.8 kPa	139.54 m/s
308.9 K, 263.3 kPa	139.32 m/s
308.9 K, 282.1 kPa	139.06 m/s
314.1 K, 86.3 kPa	142.49 m/s
314.1 K, 96.8 kPa	142.38 m/s
314.1 K, 119.2 kPa	142.15 m/s
314.1 K, 136.6 kPa	141.94 m/s
314.1 K, 161.6 kPa	141.69 m/s
314.1 K, 187.9 kPa	141.4 m/s
314.1 K, 213.8 kPa	141.12 m/s
314.1 K, 223.7 kPa	140.99 m/s
314.1 K, 247.1 kPa	140.76 m/s
314.1 K, 267.9 kPa	140.53 m/s
314.1 K, 287.2 kPa	140.33 m/s
319.3 K, 87.7 kPa	143.67 m/s
319.3 K, 98.4 kPa	143.57 m/s
319.3 K, 121.2 kPa	143.32 m/s
319.3 K, 138.9 kPa	143.13 m/s
319.3 K, 164.4 kPa	142.88 m/s
319.3 K, 191.2 kPa	142.61 m/s
319.3 K, 217.5 kPa	142.34 m/s
319.3 K, 227.6 kPa	142.24 m/s
319.3 K, 251.3 kPa	141.97 m/s
319.3 K, 272.7 kPa	141.78 m/s
319.3 K, 292.2 kPa	141.56 m/s
324.5 K, 89.2 kPa	144.83 m/s
324.5 K, 100 kPa	144.71 m/s
324.5 K, 123.2 kPa	144.49 m/s
324.5 K, 141.2 kPa	144.31 m/s
324.5 K, 167.2 kPa	144.07 m/s
324.5 K, 194.4 kPa	143.8 m/s
324.5 K, 221.2 kPa	143.52 m/s
324.5 K, 231.5 kPa	143.44 m/s
324.5 K, 255.7 kPa	143.2 m/s
324.5 K, 277.3 kPa	142.99 m/s
324.5 K, 297.1 kPa	142.79 m/s
